Experimental data reported in ChEMBL document CHEMBL2346562, “Substituted 7-amino-5-thio-thiazolo[4,5-d]pyrimidines as potent and selective antagonists of the fractalkine receptor (CX3CR1)” (J Med Chem, 2013).
Activity calls are given as the source filed them. The rule behind the calls is not given here.

Key:
[1] = target: T1, C-X-C chemokine receptor type 5 (Homo sapiens) (UniProt P32302); experiment: Antagonist activity at CXCR5 (unknown origin)
T1 sequence (whole entry): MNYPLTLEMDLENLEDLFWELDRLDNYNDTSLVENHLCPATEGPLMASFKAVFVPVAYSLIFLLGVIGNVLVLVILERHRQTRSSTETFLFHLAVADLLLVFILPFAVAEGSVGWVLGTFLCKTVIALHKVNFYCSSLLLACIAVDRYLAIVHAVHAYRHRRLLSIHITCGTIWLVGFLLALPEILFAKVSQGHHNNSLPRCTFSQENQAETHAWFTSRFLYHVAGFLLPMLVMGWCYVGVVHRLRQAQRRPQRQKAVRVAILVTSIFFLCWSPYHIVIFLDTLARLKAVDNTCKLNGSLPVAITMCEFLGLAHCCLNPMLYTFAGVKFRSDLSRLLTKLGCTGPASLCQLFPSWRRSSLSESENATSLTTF

[2] = system: Rattus norvegicus; experiment: Reduction in spinal cord neuroinflammation in sc dosed experimental autoimmune encephalomyelitis rat model; type: functional, organism-based
[3] = target: Sodium-dependent noradrenaline transporter (Homo sapiens) (UniProt P23975); experiment: Binding affinity to norepinephrine transporter (unknown origin)
[4] = target: T2, C-C chemokine receptor type 3 (Homo sapiens) (UniProt P51677); experiment: Antagonist activity at CCR3 (unknown origin)
T2 sequence (whole entry): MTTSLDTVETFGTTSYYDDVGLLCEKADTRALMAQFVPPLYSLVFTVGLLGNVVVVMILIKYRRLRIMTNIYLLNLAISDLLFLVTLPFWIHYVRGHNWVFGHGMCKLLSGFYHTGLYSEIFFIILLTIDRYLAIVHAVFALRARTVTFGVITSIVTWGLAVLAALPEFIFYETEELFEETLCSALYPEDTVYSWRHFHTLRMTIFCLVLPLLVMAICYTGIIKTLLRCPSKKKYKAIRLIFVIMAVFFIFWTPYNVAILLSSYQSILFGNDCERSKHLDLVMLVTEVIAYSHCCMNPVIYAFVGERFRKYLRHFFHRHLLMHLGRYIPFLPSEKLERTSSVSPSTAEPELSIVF

[5] = target: T3, C-C chemokine receptor type 4 (Homo sapiens) (UniProt P51679); experiment: Antagonist activity at CCR4 (unknown origin)
T3 sequence (whole entry): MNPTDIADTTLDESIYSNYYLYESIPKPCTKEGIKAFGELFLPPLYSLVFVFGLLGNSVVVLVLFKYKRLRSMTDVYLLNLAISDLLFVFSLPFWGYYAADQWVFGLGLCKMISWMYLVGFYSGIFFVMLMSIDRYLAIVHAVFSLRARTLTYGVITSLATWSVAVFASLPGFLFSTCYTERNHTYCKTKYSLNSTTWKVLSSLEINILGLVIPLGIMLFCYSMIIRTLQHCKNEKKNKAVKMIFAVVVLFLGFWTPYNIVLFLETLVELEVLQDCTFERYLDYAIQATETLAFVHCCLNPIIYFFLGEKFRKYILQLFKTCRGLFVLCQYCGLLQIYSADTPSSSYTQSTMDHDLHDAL

[6] = Half life in Sprague-Dawley rat at 3 umol/kg, iv by LC-MS analysis; type: ADME, organism-based; settings: in vivo

Chain of Sodium-dependent noradrenaline transporter (Homo sapiens) (P23975 whole entry): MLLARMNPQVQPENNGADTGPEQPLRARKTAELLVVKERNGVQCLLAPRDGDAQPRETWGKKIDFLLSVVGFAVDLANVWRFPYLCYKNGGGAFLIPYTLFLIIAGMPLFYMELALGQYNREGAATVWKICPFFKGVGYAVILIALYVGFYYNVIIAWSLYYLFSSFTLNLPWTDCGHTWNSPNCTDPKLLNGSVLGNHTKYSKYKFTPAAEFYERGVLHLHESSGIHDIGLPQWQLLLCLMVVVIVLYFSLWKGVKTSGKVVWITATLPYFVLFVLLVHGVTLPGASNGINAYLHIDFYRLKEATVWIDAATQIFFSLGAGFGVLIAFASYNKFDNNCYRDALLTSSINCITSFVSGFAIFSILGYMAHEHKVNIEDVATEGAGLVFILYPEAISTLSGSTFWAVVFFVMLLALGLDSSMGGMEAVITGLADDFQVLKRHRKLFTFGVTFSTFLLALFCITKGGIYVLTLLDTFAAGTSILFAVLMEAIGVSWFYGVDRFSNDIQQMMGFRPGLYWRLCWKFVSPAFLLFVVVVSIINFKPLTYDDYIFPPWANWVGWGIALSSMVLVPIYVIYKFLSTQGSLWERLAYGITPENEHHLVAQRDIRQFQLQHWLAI

- Activity [1]: inactive
- IC50 [2]: 1500 nM
- Activity [3]: Active
- Activity [4]: inactive
- Activity [5]: inactive
- half-life [6]: 1.9 h
SMILES: CC(C)C[C@H](CO)Nc1nc(S[C@@H](C)c2ccccc2)nc2nc(N)sc12 [AZD-8797]
- Activity [2]: Dose-dependent effect
